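Cultured in 96-well plates, cells were exposed to test compound for 48 hours across five concentrations. GI50 is the concentration that inhibits growth by half.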 The source made the active and inactive calls. Rule as the data show it: active = GI50 up to about 1.1 µM and inactive = higher.
Columns and labels:
Assay in all cases: NCI tumour cell line growth inhibition, 48 h
A549 = system: A549
ACHN = system: ACHN
BT-549 = system: BT-549
HCC 2998 = system: HCC 2998
HCT-116 = system: HCT-116
HL-60 = system: HL-60
HOP-92 = system: HOP-92
Hs-578T = system: Hs-578T
M14 = system: M14
MDA-MB-435 = system: MDA-MB-435
Malme-3M = system: Malme-3M
OVCAR-8 = system: OVCAR-8
PC-3 = system: PC-3
RXF 393 = system: RXF 393
TK-10 = system: TK-10
UACC-257 = system: UACC-257
UO-31 = system: UO-31
CCRF-CEM = system: CCRF-CEM
MOLT-4 = system: MOLT-4
SF-295 = system: SF-295

Measured: GI50

Cn1c2c(c3ccccc31)CCN=C2C1CCCOC1=O (configuration not stated)
inactive: A549 > 100 µM | ACHN > 100 µM | BT-549 47 µM | HCC 2998 > 100 µM | HCT-116 > 100 µM | HL-60 > 100 µM | HOP-92 45.4 µM | Hs-578T 32.6 µM | M14 > 100 µM | MDA-MB-435 > 100 µM | Malme-3M > 100 µM | OVCAR-8 > 100 µM | PC-3 > 100 µM | RXF 393 > 100 µM | TK-10 > 100 µM | UACC-257 > 100 µM | UO-31 43.5 µM

Clc1ccc2oc(CCC3CCCCC3)nc2c1
inactive: A549 31.6 µM | ACHN 40.6 µM | BT-549 26.8 µM | CCRF-CEM 18.5 µM | HCC 2998 22.9 µM | HCT-116 31.4 µM | HL-60 16.3 µM | HOP-92 35.2 µM | Hs-578T 91.2 µM | M14 32 µM | MDA-MB-435 27.3 µM | MOLT-4 16.4 µM | Malme-3M 39.5 µM | OVCAR-8 44.1 µM | PC-3 33 µM | RXF 393 15.1 µM | SF-295 22 µM | TK-10 26.4 µM | UACC-257 30.6 µM | UO-31 17.9 µM

COc1ccc2c(c1OC)C(=O)N1C2=Cc2c(cc3c(c2OC)OCO3)CC1N(C)C (configuration not stated)
inactive: A549 47.4 µM | ACHN 29.9 µM | BT-549 33.3 µM | CCRF-CEM 27.7 µM | HCC 2998 > 100 µM | HCT-116 35.3 µM | HL-60 24.9 µM | HOP-92 30.3 µM | Hs-578T 34.8 µM | M14 66.7 µM | MDA-MB-435 53.3 µM | MOLT-4 34.5 µM | Malme-3M 51.4 µM | OVCAR-8 35.7 µM | PC-3 30.9 µM | RXF 393 54.5 µM | SF-295 50.8 µM | TK-10 96.6 µM | UACC-257 88.3 µM | UO-31 29.9 µM
